Source: ChEMBL document CHEMBL4689842, “EUbOPEN Chemogenomics Library wave 1” (2021)

Tests used:
Type in all cases: toxicity, cell-based
HEK-293T = assay: Incucyte cell viability with HEK293T; conditions: human, 10 µM, compound concentration 10 uM
Fibroblast = assay: Incucyte cell viability with human fibroblast; conditions: 10 µM, compound concentration 10 uM
U2OS = assay: Incucyte cell viability with U2OS; conditions: human, 10 µM, compound concentration 10 uM
[1] = 0 h, replicate number 2, timepoint 0 hours
[2] = 6 h, replicate number 1, timepoint 6 hours
[3] = 6 h, replicate number 2, timepoint 6 hours
[4] = 12 h, replicate number 1, timepoint 12 hours
[5] = 18 h, replicate number 1, timepoint 18 hours
[6] = 24 h, replicate number 1, timepoint 24 hours
[7] = 0 h, replicate number 1, timepoint 0 hours
[8] = 12 h, replicate number 2, timepoint 12 hours
[9] = 24 h, replicate number 2, timepoint 24 hours
[10] = 18 h, replicate number 2, timepoint 18 hours
Also: filed as whole numbers so only -1 and 0 and 1 occur.

Row | SMILES | Growth Rate (HEK-293T; [1]) | Growth Rate (HEK-293T; [2]) | Growth Rate (HEK-293T; [4]) | Growth Rate (HEK-293T; [5]) | Growth Rate (HEK-293T; [6]) | Growth Rate (Fibroblast; [7]) | Growth Rate (Fibroblast; [2]) | Growth Rate (Fibroblast; [4]) | Growth Rate (Fibroblast; [5]) | Growth Rate (Fibroblast; [6]) | Growth Rate (U2OS; [7]) | Growth Rate (U2OS; [4]) | Growth Rate (U2OS; [8]) | Growth Rate (U2OS; [5]) | Growth Rate (U2OS; [6]) | Growth Rate (HEK-293T; [7]) | Growth Rate (Fibroblast; [1]) | Growth Rate (U2OS; [2]) | Growth Rate (Fibroblast; [3]) | Growth Rate (Fibroblast; [8]) | other results
1 | S=C=Nc1cccc(NC(=S)NCCCCNC(=S)Nc2cccc(N=C=S)c2)c1 | 0 | 0 | 0 | 0 | 0 | 0 | 0 | 0 | 0 | 0 | 0 | 1 | 0 | 0 | 0 | – | – | – | – | – | Growth Rate (HEK-293T; [3]): 1; Growth Rate (U2OS; [3]): 0
2 | Cn1c(CNc2cccc(C(=O)NCc3ccccc3C(F)(F)F)c2)nnc1-c1ccncc1 | – | – | – | – | – | 1 | 0 | 0 | 0 | 0 | – | 0 | 1 | 0 | 0 | 0 | 0 | 0 | – | – | Growth Rate (HEK-293T; [9]): 1; Growth Rate (U2OS; [1]): 0
3 | CC(C)N(CCCNC(=O)Nc1ccc(C(C)(C)C)cc1)C[C@H]1O[C@@H](n2cc(Br)c3c(N)ncnc32)[C@H](O)[C@@H]1O | – | 0 | – | – | 1 | – | – | 1 | 1 | 1 | 0 | 1 | – | 1 | 1 | – | 0 | 1 | – | – | Growth Rate (HEK-293T; [8]): 0; Growth Rate (HEK-293T; [10]): 1
4 | O=C(O)C1CN(Cc2ccc(OCc3ccc(Cl)c(Cl)c3)cc2)C1 | 0 | 0 | 0 | 0 | 0 | 1 | 0 | 0 | 0 | 0 | 0 | 1 | 0 | 0 | 1 | – | – | – | – | – | Growth Rate (U2OS; [3]): 0; Growth Rate (U2OS; [9]): 0
5 | COc1cc2c(cc1NS(=O)(=O)c1ccc(Br)cc1C)n(C)c(=O)n2C | 0 | 0 | 0 | 0 | 0 | 0 | – | 1 | 1 | 1 | 0 | 1 | – | 1 | 1 | 1 | – | 1 | 0 | 0 | Growth Rate (Fibroblast; [9]): 0
6 | CCOc1cn(-c2ccc(F)cc2C)nc1C(=O)Nc1ccc(Oc2ccnc3cc(OC)c(OC)cc23)c(F)c1 | – | 1 | – | – | 1 | 1 | 0 | 0 | 0 | 0 | – | 1 | – | 1 | 1 | 0 | – | – | 1 | 1 | Growth Rate (HEK-293T; [3]): 0; Growth Rate (HEK-293T; [8]): 0; Growth Rate (HEK-293T; [10]): 1; Growth Rate (HEK-293T; [9]): 0; Growth Rate (Fibroblast; [10]): 1; Growth Rate (Fibroblast; [9]): 1
7 | CC(C)Oc1ccc(-c2c[nH]cc2CN(C)CCN)cc1 | 1 | – | – | – | – | 0 | – | – | 1 | 1 | 0 | 1 | – | 0 | 0 | 0 | – | 0 | 0 | 0 | Growth Rate (HEK-293T; [9]): 1; Growth Rate (Fibroblast; [10]): 0; Growth Rate (Fibroblast; [9]): 0; Growth Rate (U2OS; [10]): 1; Growth Rate (U2OS; [9]): 1
8 | CN1C[C@H](Nc2cnn(C)c(=O)c2Br)C[C@H](c2ccccc2)C1 | 0 | 0 | 0 | 0 | 0 | 0 | 0 | 1 | 1 | 1 | – | 1 | – | 1 | 1 | 1 | – | 0 | – | 0 | Growth Rate (Fibroblast; [10]): 0; Growth Rate (Fibroblast; [9]): 0; Growth Rate (U2OS; [1]): 0
9 | O=C(NCC(=O)N1CCCC1)Nc1ccc2cnccc2c1 | – | – | – | – | 1 | – | 0 | 0 | 0 | 0 | 0 | 1 | 0 | 1 | 1 | 0 | 0 | 1 | – | 1 | Growth Rate (HEK-293T; [3]): 0; Growth Rate (HEK-293T; [8]): 0; Growth Rate (HEK-293T; [10]): 1; Growth Rate (HEK-293T; [9]): 0; Growth Rate (Fibroblast; [10]): 1; Growth Rate (Fibroblast; [9]): 1; Growth Rate (U2OS; [3]): 0
10 | O=C1CCc2cc(Nc3cc(OC4CCOCC4)c([N+](=O)[O-])cc3Cl)ccc2N1 | 1 | – | – | – | – | – | 0 | 0 | 0 | 0 | 0 | 0 | 1 | 0 | 0 | 0 | 0 | 0 | – | 1 | Growth Rate (HEK-293T; [3]): 1; Growth Rate (HEK-293T; [8]): 1; Growth Rate (HEK-293T; [9]): 1; Growth Rate (U2OS; [3]): 1; Growth Rate (U2OS; [9]): 1
11 | Nc1ncnc2c1ccn2[C@@H]1O[C@H]([C@H](O)c2ccccc2)[C@@H](O)[C@H]1O | 1 | 1 | – | 1 | 1 | – | – | – | 1 | 1 | 0 | 0 | 1 | 0 | 0 | – | 0 | 0 | 1 | 0 | Growth Rate (HEK-293T; [8]): 1; Growth Rate (Fibroblast; [9]): 0; Growth Rate (U2OS; [10]): 1; Growth Rate (U2OS; [9]): 1
12 | Cl.Clc1cccc(COc2cncc(N3CCNCC3)n2)c1 | 1 | 0 | 0 | 0 | 0 | 1 | 1 | – | – | 1 | – | 0 | 1 | 1 | 1 | – | – | – | 0 | 0 | Growth Rate (Fibroblast; [10]): 0; Growth Rate (Fibroblast; [9]): 0; Growth Rate (U2OS; [3]): 0
13 | O=C(N[C@@H](C1CC1)C(F)(F)F)c1cc(-c2cnn3cc(-c4ccc(F)cc4)cnc23)cs1 | 1 | – | – | – | – | 0 | 1 | 1 | 1 | 1 | – | 0 | – | 0 | 1 | 0 | – | 0 | – | – | Growth Rate (HEK-293T; [3]): 1; Growth Rate (HEK-293T; [8]): 1; Growth Rate (HEK-293T; [9]): 1; Growth Rate (U2OS; [1]): 1; Growth Rate (U2OS; [9]): 0
14 | COc1cc(-c2cn([C@H]3CCc4ccccc4N(CC(F)(F)F)C3=O)nn2)ccc1-n1ccc(C)n1 | 1 | 0 | 0 | 0 | 0 | – | 0 | 0 | 1 | 0 | 0 | 0 | 1 | 0 | 0 | – | 0 | 0 | – | 1 | Growth Rate (Fibroblast; [10]): 0
15 | CCOC(=O)CCNc1cc(N2CCc3ccccc3CC2)nc(-c2cccnc2)n1 | 1 | 0 | 0 | 0 | 0 | – | 1 | 1 | 1 | 1 | – | 1 | 0 | 1 | 1 | – | 1 | 1 | 0 | – | Growth Rate (Fibroblast; [10]): 0; Growth Rate (U2OS; [1]): 0; Growth Rate (U2OS; [10]): 0; Growth Rate (U2OS; [9]): 0
16 | CN(C)C(=O)/C(C#N)=C/c1ccc(-c2nc3cnc4c(ccn4C)c3n2C2CCCCC2)o1 | – | 0 | 0 | 0 | 0 | – | 0 | 0 | 0 | 0 | 0 | 0 | 1 | 0 | 1 | – | – | 0 | 1 | – | Growth Rate (U2OS; [3]): 1; Growth Rate (U2OS; [10]): 1
17 | CSc1cccnc1N1CCN(Cc2nc3ccccc3[nH]2)CC1 [A-769] | 0 | 0 | 0 | 0 | 0 | 0 | 0 | 0 | 0 | 0 | – | 0 | – | 0 | 1 | 1 | 1 | 0 | 1 | 1 | Growth Rate (U2OS; [10]): 1
18 | CCCOc1ccc([C@H]2[C@H](C(=O)O)[C@@H](c3ccc4c(c3)OCO4)CN2CC(=O)Nc2c(CC)cccc2CC)cc1 [A-192621] | – | 0 | 0 | 0 | 0 | 0 | 1 | 1 | 1 | 1 | – | 0 | – | 0 | 0 | 0 | 1 | 0 | 0 | – | Growth Rate (HEK-293T; [10]): 1; Growth Rate (U2OS; [10]): 1; Growth Rate (U2OS; [9]): 1
19 | CC#CC(=O)N1CCC[C@H]1c1nc(-c2ccc(C(=O)Nc3ccccn3)cc2)c2c(N)nccn12 [ACALABRUTINIB] | – | 0 | 0 | 0 | 0 | 0 | 1 | 0 | 0 | 1 | 0 | 0 | – | 0 | 1 | 1 | – | 0 | 0 | 1 | Growth Rate (HEK-293T; [10]): 1; Growth Rate (Fibroblast; [9]): 0; Growth Rate (U2OS; [1]): 1; Growth Rate (U2OS; [9]): 0
20 | Cc1cc([C@@H](C)Nc2ccccc2C(=O)O)c2nc(N3CCOCC3)cc(=O)n2c1 [AZD-6482] | – | 0 | 0 | 0 | 0 | – | 0 | 0 | 0 | 1 | 0 | 0 | 1 | 0 | 0 | – | 0 | 0 | – | – | Growth Rate (HEK-293T; [8]): 1; Growth Rate (HEK-293T; [9]): 1; Growth Rate (Fibroblast; [10]): 1; Growth Rate (U2OS; [3]): 1; Growth Rate (U2OS; [10]): 1
